In patent US20110214194A1 (priority 2005, published 2011):

What was measured:
peritoneal macrophages [1] = assay type: cell-based, mouse
type I IFN = assay type: cell-based, mouse; details: Heedless macrophages, 100 ng/ml, 4 hours
IRF-3 = assay: Immunoblot analysis of IRF-3 activation in macrophages; assay type: cell-based, mouse; details: heedless mutant cells, lipid A 100 ng/ml
NF-κB, ERK1 and ERK2 = assay: Immunoblot analysis of IκB and ERK (p42/44) phosphorylation in macrophages; assay type: cell-based, mouse; details: Heedless macrophages, lipid A 100 ng/ml
peritoneal macrophages [2] = details: Trif mutant macrophages; cited from earlier work

| Substance | TNF production in response to the inducer: effect of the Heedless mutation (peritoneal macrophages [1]) | other results |
| --- | --- | --- |
| poly IC | normal | – |
| lipid A | – | signaling via the MyD88-independent pathway (type I IFN production): effect of the Heedless mutation (type I IFN): prevented; formation of the IRF-3 phosphodimer (IRF-3): not detected; activation of NF-κB and phosphorylation of ERK1 and ERK2 (NF-κB, ERK1 and ERK2): occurred normally; lipid A-induced TNF production (peritoneal macrophages [2]): rather severe impairment |
| Pam2CSK4 | partial impairment of the response | – |
| Pam3CSK4 | normal | – |
| lipoteichoic acid | partial impairment of the response | – |
| MALP-2 | partial impairment of the response | – |
